ChEMBL document CHEMBL1201862, “PubChem BioAssay data set” (2004)
Active and inactive are the calls of the source.

Assays:
Tumor necrosis factor = Tumor necrosis factor (Homo sapiens, UniProt P01375); experiment: analog potency on TNFa NF-kB signaling – cell-based, revised, SAR follow-up (AID 2337); type: functional
[1] = target: T1, Nucleotide-binding oligomerization domain-containing protein 1 (Homo sapiens, UniProt Q9Y239); experiment: blockers of NOD1 pathway activity – revised, SAR follow-up (AID 2333); type: functional
T1 sequence (Q9Y239 whole entry): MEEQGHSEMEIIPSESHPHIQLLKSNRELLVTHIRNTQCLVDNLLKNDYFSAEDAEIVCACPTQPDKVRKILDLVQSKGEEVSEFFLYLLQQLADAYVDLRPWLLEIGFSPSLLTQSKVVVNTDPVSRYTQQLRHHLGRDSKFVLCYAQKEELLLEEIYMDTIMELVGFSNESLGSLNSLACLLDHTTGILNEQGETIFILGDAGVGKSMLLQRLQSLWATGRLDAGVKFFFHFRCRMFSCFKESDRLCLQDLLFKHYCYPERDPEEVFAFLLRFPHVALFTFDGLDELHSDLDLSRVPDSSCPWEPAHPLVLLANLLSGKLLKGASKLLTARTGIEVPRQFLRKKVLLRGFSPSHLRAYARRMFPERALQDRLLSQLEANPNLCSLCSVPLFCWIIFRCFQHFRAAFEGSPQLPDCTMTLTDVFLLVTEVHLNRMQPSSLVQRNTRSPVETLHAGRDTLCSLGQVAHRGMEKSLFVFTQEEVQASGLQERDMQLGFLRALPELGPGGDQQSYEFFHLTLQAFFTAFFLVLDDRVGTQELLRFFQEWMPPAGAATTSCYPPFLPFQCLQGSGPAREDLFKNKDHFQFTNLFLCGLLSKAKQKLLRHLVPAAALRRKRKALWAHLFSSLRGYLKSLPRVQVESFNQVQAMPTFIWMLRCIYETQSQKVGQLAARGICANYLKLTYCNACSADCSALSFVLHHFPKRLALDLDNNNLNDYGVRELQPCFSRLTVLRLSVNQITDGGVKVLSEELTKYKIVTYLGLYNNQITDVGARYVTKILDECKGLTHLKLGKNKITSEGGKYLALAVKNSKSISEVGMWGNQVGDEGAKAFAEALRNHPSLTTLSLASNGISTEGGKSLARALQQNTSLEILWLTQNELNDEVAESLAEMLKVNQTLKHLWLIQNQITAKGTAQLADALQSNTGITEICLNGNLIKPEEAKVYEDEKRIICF

Interleukin-8 = Interleukin-8 (Homo sapiens, UniProt P10145); experiment: SAR analysis of tumor necrosis factor alpha (TNF-alpha) induced IL-8 secretion in MCF-7/NOD1 cells. [Related pubchem assays (depositor defined):AID1575, AID2250, AID2260]; type: functional, cell-based
[2] = target: Nucleotide-binding oligomerization domain-containing protein 2 (Homo sapiens, UniProt Q9HC29); experiment: PubChem AID 2334; type: functional
HEK293 [3] = experiment: cells; details: Homo sapiens
Staphylococcus aureus = experiment: Inhibitors of Bacterial Quorum Sensing Structure Activity Relationship (SAR) Analysis: Dose Response Assay. [Related pubchem assays: 700, 527 ]; type: functional, organism-based
Cysteine protease ATG4B = target: T2, Cysteine protease ATG4B (Homo sapiens, UniProt Q9Y4P1); type: functional;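 note: Fluorescence-based dose-response confirmation assay measuring inhibition of ATG4B activity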
T2 sequence (Q9Y4P1 whole entry): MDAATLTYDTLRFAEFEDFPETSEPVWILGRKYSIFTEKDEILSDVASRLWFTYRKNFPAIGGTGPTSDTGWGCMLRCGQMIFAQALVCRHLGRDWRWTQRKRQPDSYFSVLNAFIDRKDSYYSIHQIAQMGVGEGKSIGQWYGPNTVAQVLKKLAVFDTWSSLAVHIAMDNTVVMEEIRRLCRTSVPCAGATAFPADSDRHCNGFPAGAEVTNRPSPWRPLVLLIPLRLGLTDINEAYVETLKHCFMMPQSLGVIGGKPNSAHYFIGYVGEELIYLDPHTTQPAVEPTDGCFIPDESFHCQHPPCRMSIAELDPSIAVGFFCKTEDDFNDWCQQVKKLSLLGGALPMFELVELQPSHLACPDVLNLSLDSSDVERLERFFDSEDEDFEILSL

Cytochrome P450 2C19 = Cytochrome P450 2C19 (Homo sapiens, UniProt P33261); experiment: Cytochrome panel assay with activity outcomes. Panel member name: p450-cyp2c19 Compounds with AC50 equal or less than 10 uM are considered active; type: functional; details: read-out: AC50
Phospholipase A2 = Phospholipase A2 (Homo sapiens, UniProt P04054); type: functional;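 note: confirmatory dose-response counterscreen on phospholipase A2, testing hits that came from an ultra-high-throughput screen for ATG4B inhibitors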
Cytochrome P450 3A4 = Cytochrome P450 3A4 (Homo sapiens, UniProt P08684);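 note: CYP3A4 tested as one member of a cytochrome P450 panel screen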
HEK293 [4] = experiment: PMA/Ionomycin induced NF-kB luciferase assay in 293- NF-kB-Luc stable cells. [Related pubchem assays: 1299, 1270, 1295, 1375, 1287, 1281, 1293, 1291, 1289, 1280, 465, 1364, 1282, 1372, 1365, 1370, 1367, 1366, 1269, 1373, 1292, 1290, 1302, 1371, 1283, 1271, 1294, 1374, 1368, 1369 ]; type: functional, cell-based; details: Homo sapiens
[5] = target: Luciferin 4-monooxygenase (Photinus pyralis, UniProt P08659); experiment: In vitro luciferase assay using purified luciferase. [Related pubchem assays: 1299, 1270, 1295, 1375, 1287, 1281, 1293, 1291, 1289, 1280, 465, 1364, 1282, 1372, 1365, 1370, 1367, 1366, 1266, 1373, 1292, 1290, 1302, 1371, 1283, 1271, 1294, 1374, 1368, 1369 ]
HEK293 [6] = experiment: Cytotoxicity assay in HEK293 cells. [Related pubchem assays (depositor defined):AID1266, AID1269, AID1270, AID1271, AID1280, AID1281, AID1282, AID1283, AID1287, AID1289, AID1290, AID1291, AID1292, AID1293, AID1294, AID1295, AID1299, AID1302, AID1364, AID1365, AID1366, AID1367, AID1369, AID1370, AID1371, AID1372, AID1373, AID1374, AID1375, AID1384 …; type: functional, cell-based; details: Homo sapiens
[7] = target: T3, Eukaryotic translation initiation factor 2-alpha kinase 3 (Homo sapiens, UniProt Q9NZJ5); experiment: Dose response cell-based high-throughput screening assay to measure PERK inhibition. [Related pubchem assays: 1416 ]; type: functional
[8] = target: T3, Eukaryotic translation initiation factor 2-alpha kinase 3; experiment: Counterscreen assay for PERK inhibitors: Dose response cell-based high throughput screening assay to measure inhibition of PERK at 6 hours. [Related pubchem assays: 1522, 1416 ]; type: functional

T3 sequence (Q9NZJ5 whole entry): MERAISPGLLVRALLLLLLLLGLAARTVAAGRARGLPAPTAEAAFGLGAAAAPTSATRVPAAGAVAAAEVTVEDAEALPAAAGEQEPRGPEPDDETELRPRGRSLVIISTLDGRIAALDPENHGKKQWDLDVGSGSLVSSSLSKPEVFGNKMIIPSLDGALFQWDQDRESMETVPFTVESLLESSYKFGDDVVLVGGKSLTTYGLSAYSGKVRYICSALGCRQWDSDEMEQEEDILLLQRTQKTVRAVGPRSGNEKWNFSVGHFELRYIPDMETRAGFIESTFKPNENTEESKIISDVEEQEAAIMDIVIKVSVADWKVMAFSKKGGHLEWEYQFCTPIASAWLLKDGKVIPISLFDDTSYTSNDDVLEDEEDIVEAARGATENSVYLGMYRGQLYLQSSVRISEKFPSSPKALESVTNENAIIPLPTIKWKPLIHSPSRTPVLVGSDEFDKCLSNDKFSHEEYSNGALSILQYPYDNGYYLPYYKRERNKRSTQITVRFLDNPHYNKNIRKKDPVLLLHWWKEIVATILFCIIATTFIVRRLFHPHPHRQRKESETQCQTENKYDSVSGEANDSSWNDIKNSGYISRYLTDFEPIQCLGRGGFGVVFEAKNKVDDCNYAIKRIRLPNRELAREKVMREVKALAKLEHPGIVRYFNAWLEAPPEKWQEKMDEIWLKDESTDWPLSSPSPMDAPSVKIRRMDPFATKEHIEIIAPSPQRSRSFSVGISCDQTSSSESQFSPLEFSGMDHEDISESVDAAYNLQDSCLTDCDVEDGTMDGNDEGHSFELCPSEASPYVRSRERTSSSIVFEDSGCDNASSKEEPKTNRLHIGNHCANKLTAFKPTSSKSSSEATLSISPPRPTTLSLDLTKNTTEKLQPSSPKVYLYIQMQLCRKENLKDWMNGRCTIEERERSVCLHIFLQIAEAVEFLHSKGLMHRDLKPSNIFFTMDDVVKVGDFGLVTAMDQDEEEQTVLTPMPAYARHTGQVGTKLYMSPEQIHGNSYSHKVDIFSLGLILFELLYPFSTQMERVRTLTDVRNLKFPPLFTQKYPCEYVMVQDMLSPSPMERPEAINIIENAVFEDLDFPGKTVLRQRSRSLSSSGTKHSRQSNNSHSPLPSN
Chain of Tumor necrosis factor (P01375 whole entry, the tested form may be a part): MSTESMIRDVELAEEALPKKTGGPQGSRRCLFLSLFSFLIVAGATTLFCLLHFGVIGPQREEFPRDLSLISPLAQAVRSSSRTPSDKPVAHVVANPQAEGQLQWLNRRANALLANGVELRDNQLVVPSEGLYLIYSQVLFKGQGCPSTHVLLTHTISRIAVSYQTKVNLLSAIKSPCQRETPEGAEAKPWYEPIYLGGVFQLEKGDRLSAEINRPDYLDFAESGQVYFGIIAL
Chain of Nucleotide-binding oligomerization domain-containing protein 2 (Q9HC29 whole entry, the tested form may be a part): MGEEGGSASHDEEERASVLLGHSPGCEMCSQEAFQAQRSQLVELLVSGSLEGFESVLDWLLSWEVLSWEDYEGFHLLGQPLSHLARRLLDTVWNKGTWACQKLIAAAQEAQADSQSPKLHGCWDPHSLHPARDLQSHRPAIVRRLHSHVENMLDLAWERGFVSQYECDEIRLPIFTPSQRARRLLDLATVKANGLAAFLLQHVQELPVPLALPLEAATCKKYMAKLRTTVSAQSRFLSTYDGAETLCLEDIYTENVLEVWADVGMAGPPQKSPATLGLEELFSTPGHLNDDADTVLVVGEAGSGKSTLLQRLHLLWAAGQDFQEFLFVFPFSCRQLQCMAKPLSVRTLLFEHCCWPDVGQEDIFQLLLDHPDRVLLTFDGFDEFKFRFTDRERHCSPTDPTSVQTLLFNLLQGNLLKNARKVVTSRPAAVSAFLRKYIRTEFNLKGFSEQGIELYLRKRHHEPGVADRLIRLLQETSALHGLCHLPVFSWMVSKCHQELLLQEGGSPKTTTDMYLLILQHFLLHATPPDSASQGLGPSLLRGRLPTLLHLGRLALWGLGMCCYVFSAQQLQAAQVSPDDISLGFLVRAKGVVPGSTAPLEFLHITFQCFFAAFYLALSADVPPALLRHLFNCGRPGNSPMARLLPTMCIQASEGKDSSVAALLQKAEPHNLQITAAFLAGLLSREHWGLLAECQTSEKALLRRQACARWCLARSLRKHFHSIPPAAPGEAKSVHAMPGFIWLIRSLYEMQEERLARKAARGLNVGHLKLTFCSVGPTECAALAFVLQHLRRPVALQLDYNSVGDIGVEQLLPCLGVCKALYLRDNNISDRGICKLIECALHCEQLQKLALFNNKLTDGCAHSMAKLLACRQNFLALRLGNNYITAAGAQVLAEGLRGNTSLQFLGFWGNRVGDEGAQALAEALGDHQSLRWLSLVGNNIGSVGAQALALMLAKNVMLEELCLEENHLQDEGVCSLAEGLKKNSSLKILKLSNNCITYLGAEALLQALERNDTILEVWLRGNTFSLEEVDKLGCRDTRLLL
Chain of Interleukin-8 (P10145 whole entry, the tested form may be a part): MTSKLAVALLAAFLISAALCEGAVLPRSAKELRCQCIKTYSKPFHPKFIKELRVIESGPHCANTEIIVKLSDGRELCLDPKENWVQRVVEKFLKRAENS
Chain of Phospholipase A2 (P04054 whole entry): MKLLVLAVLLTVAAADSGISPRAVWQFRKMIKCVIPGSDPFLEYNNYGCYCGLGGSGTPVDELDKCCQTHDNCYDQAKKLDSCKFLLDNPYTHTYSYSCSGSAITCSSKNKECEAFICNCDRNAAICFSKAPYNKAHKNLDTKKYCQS
Chain of Cytochrome P450 3A4 (P08684 whole entry): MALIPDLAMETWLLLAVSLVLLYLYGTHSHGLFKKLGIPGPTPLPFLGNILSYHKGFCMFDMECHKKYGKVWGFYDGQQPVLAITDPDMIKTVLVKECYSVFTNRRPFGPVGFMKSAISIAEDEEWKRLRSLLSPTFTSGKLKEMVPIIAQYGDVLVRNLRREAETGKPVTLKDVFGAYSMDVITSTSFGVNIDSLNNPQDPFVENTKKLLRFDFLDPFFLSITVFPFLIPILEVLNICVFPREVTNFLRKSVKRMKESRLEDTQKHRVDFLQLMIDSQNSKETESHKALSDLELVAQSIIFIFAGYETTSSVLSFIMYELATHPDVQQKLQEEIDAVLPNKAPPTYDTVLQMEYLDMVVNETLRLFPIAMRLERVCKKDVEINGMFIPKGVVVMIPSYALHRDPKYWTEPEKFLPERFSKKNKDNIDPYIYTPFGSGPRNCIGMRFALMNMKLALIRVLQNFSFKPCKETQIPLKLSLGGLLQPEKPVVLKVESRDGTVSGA
Chain of Cytochrome P450 2C19 (P33261 whole entry): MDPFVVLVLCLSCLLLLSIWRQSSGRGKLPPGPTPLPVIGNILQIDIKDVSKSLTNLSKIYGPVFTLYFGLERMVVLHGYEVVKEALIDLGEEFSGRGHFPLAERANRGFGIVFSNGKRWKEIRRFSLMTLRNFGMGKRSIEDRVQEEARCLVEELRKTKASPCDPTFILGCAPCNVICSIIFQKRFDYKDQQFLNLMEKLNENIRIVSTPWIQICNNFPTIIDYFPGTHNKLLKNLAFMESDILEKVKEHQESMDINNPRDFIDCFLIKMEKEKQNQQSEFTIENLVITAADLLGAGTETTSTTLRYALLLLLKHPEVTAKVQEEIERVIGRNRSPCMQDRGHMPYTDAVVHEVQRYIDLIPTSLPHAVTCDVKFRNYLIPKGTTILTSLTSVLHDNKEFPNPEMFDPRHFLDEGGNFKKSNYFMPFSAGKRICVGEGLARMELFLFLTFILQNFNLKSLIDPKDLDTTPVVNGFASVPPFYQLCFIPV
Chain of Luciferin 4-monooxygenase (P08659 whole entry): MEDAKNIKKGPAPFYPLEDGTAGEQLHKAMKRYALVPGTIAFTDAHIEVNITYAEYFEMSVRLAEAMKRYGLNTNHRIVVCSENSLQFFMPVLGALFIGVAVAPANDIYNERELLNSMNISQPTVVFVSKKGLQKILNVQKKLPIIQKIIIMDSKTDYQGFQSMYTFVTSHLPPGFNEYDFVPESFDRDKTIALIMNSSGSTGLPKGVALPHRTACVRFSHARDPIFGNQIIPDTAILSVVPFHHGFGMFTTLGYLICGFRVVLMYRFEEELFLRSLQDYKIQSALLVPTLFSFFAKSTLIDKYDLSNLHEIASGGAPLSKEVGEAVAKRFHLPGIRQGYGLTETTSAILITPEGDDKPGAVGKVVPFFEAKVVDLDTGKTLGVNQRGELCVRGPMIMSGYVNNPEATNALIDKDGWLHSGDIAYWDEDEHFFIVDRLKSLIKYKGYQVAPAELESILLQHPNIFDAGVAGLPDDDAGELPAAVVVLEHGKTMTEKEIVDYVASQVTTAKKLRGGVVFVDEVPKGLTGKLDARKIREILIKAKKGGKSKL

`O=C(O)c1c(NC(=O)N2CCOCC2)sc2c1CCCC2` was tested, and the IC50 (Tumor necrosis factor) was > 20 µM (inactive), the IC50 [1] was 1.47 µM (active) and the IC50 (Interleukin-8) was > 25 µM (inactive). The IC50 [2] was > 20 µM (inactive) and the IC50 (HEK293 [3]) was > 20 µM (inactive).

For `Cc1c(Cl)cccc1Nc1ccccc1C(=O)O` [TOLFENAMIC ACID], the IC50 (Staphylococcus aureus) was 0.459 µM (active), the IC50 (Cysteine protease ATG4B) was 8.17 µM (active) and the AC50 (Cytochrome P450 2C19) was 15.8 µM (inconclusive). For the same compound, the IC50 (Phospholipase A2) was 7.74 µM (active) and the AC50 (Cytochrome P450 3A4) was “inconclusive”.

For `COc1ccc(CNC(=O)c2ccc([N+](=O)[O-])o2)cc1`, the EC50 (HEK293 [4]) was 4.24 µM (not active), the EC50 [5] was > 8 µM (not active) and the EC50 (HEK293 [6]) was > 8 µM (inactive).

For `Cc1cscc1NC(=O)/C=C/C(=O)O`, the EC50 [7] was > 55.7 µM (not active) and the EC50 [8] was > 55.7 µM (not active).
